Article PMC8353992 (Journal of medicinal chemistry, 2021)

Target: SARS-CoV-2 3CL^pro (Severe acute respiratory syndrome coronavirus 2, UniProt P0DTD1)
Format: biochemical

| SMILES | primary biochemical potency |
| --- | --- |
| O=C(Cc1cccnc1)N(Cc1cccc(Cl)c1)c1ccc(-c2cn[nH]c2)cc1 [Compound 42, N-[(3-Chlorophenyl)methyl]-N-[4-(1H-pyrazol-4-yl)phenyl]-2-(3-pyridyl)acetamide] | micromolar levels |
| O=C(Cc1cncnc1)N(Cc1cccc(Cl)c1)c1ccc(-c2cn[nH]c2)cc1 [Compound 43, N-[(3-Chlorophenyl)methyl]-N-[4-(1H-pyrazol-4-yl)phenyl]-2-pyrimidin-5-yl-acetamide] | micromolar levels |
